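Five concentrations, 48 hours, 96-well plates. Abbreviation: GI50, concentration required for 50% inhibition of growth.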 Activity calls are given as the source filed them. No stated cut-off is given here; in the data, active = GI50 up to about 1.1 µM and inactive = higher.
Legend:
Experiment in all cases: NCI-60 cell line screen, 48 h
A498 = system: A498
ACHN = system: ACHN
BT-549 = system: BT-549
COLO 205 = system: COLO 205
HCT-15 = system: HCT-15
HL-60 = system: HL-60
Hs-578T = system: Hs-578T
IGROV-1 = system: IGROV-1
LOX IMVI = system: LOX IMVI
NCI-H460 = system: NCI-H460
NCI/ADR-RES = system: NCI/ADR-RES
OVCAR-3 = system: OVCAR-3
OVCAR-5 = system: OVCAR-5
SF-268 = system: SF-268
SK-MEL-2 = system: SK-MEL-2
T47D = system: T47D
TK-10 = system: TK-10
UACC-257 = system: UACC-257
UACC-62 = system: UACC-62

Structure (SMILES) | GI50 (A498) | GI50 (ACHN) | GI50 (BT-549) | GI50 (COLO 205) | GI50 (HCT-15) [µM] | GI50 (HL-60) | GI50 (Hs-578T) | GI50 (IGROV-1) | GI50 (LOX IMVI) | GI50 (NCI-H460) | GI50 (NCI/ADR-RES) | GI50 (OVCAR-3) | GI50 (OVCAR-5) | GI50 (SF-268) | GI50 (SK-MEL-2) | GI50 (T47D) | GI50 (TK-10) | GI50 (UACC-257) | GI50 (UACC-62)
CCc1c(C)c(C#N)c(=S)n(C2OC(COC(C)=O)C(OC(C)=O)C(OC(C)=O)C2OC(C)=O)c1-c1ccccc1 (stereo unspecified) | 14.6 µM (inactive) | 23.7 µM (inactive) | 52.1 µM (inactive) | > 31.6 µM (inactive) | > 31.6 | > 100 µM (inactive) | 20.7 µM (inactive) | 23.7 µM (inactive) | > 31.6 µM (inactive) | > 31.6 µM (inactive) | > 31.6 µM (inactive) | > 31.6 µM (inactive) | > 31.6 µM (inactive) | > 31.6 µM (inactive) | 21.8 µM (inactive) | > 31.6 µM (inactive) | 22.1 µM (inactive) | > 31.6 µM (inactive) | > 10 µM (inactive)
CC(=O)Nc1ccc2c3c(cc(O)c2c1)N(C(=O)CCCCCCC(=O)Nc1ccc2c4c(cc(O)c2c1)N(C(=O)OC(C)(C)C)CC4CCl)CC3CCl (stereo unspecified) | 0.0244 µM (active) | 0.0484 µM (active) | 0.146 µM (active) | 0.103 µM (active) | 2.64 | < 0.0108 µM (active) | 0.264 µM (active) | 0.0822 µM (active) | 0.0391 µM (active) | 0.0233 µM (active) | > 35.4 µM (inactive) | 0.045 µM (active) | 0.109 µM (active) | 0.0291 µM (active) | 0.0423 µM (active) | 0.0573 µM (active) | 0.344 µM (active) | 0.148 µM (active) | 0.0695 µM (active)
CCN(CC)CCCNc1nnc(C)c2[nH]c3ccccc3c12 | 17.2 µM (inactive) | 18 µM (inactive) | 21.6 µM (inactive) | 2.7 µM (inactive) | > 100 | 3.28 µM (inactive) | 15.4 µM (inactive) | 12.1 µM (inactive) | 7.46 µM (inactive) | 8.13 µM (inactive) | > 100 µM (inactive) | 11.7 µM (inactive) | 19.6 µM (inactive) | 8.73 µM (inactive) | 15.2 µM (inactive) | 12.7 µM (inactive) | 20.2 µM (inactive) | 15.1 µM (inactive) | 13.7 µM (inactive)
O=C(/C=C/c1ccsc1)c1ccco1 | 5.41 µM (inactive) | 10.8 µM (inactive) | 18.5 µM (inactive) | 17.6 µM (inactive) | 7.24 | 7.26 µM (inactive) | 9.4 µM (inactive) | 10.4 µM (inactive) | 3.1 µM (inactive) | 14.3 µM (inactive) | 16.6 µM (inactive) | 14 µM (inactive) | 17.1 µM (inactive) | 17.1 µM (inactive) | 14.1 µM (inactive) | 11.8 µM (inactive) | 20 µM (inactive) | 17.3 µM (inactive) | 14.6 µM (inactive)
COc1cc(C2c3[nH]c4ccccc4c3[C@@H](Nc3ccc(C#N)cc3)[C@H]3COC(=O)N23)cc(OC)c1O (stereo partly specified) | 0.0516 µM (active) | 0.155 µM (active) | 0.265 µM (active) | 0.644 µM (active) | 1.07 | 0.0399 µM (active) | 0.265 µM (active) | 0.501 µM (active) | 0.0962 µM (active) | 0.0288 µM (active) | 9.98 µM (inactive) | 0.441 µM (active) | 0.316 µM (active) | 0.208 µM (active) | 0.356 µM (active) | 0.345 µM (active) | 0.335 µM (active) | 0.548 µM (active) | 0.114 µM (active)
FC(F)(F)c1ccc2nc3n(c2c1)C(c1c(Cl)cccc1Cl)SC3 (stereo unspecified) | 19.8 µM (inactive) | 15.9 µM (inactive) | 20.7 µM (inactive) |  | 14.2 | 2.47 µM (inactive) | 23.1 µM (inactive) | 11.5 µM (inactive) | 27.6 µM (inactive) | 14.5 µM (inactive) | 11.3 µM (inactive) | 15.6 µM (inactive) | 15.9 µM (inactive) | 21.6 µM (inactive) | 18.2 µM (inactive) | 11.2 µM (inactive) | 18.3 µM (inactive) | 14.1 µM (inactive) | 14.5 µM (inactive)
CN(/N=C(\C(=O)O)c1ccccc1)C1=NCCCN1 | > 100 µM (inactive) | > 100 µM (inactive) | > 100 µM (inactive) | > 100 µM (inactive) | > 100 | > 100 µM (inactive) | > 100 µM (inactive) | > 100 µM (inactive) | > 100 µM (inactive) | > 100 µM (inactive) | > 100 µM (inactive) | > 100 µM (inactive) | > 100 µM (inactive) | > 100 µM (inactive) | > 100 µM (inactive) | > 100 µM (inactive) | > 100 µM (inactive) | > 100 µM (inactive) | > 100 µM (inactive)
Nc1ccc2c(c1)nc1n2C(c2c(F)cccc2F)SC1 (stereo unspecified) | > 100 µM (inactive) | > 100 µM (inactive) | > 100 µM (inactive) | > 100 µM (inactive) | > 100 | 48.5 µM (inactive) | > 100 µM (inactive) | > 100 µM (inactive) | > 100 µM (inactive) | > 100 µM (inactive) | > 100 µM (inactive) | > 100 µM (inactive) | > 100 µM (inactive) | > 100 µM (inactive) | > 100 µM (inactive) | 76.4 µM (inactive) | > 100 µM (inactive) | > 100 µM (inactive) | > 100 µM (inactive)

Source: ChEMBL document CHEMBL1201862, “PubChem BioAssay data set” (2004)
